Tests used:
CT26 tumor cells [1] = test: In vivo efficacy of deuterated compounds in combination with an anti-PD-1 antibody in CT26 animal model; set-up: species or system BALB/c mice; details: for tumor size as compared to placebo group and to anti-PD-1 antibody alone group / tumor size over the experimental period: 1.6 μg compound s.c. in combination with 50 μg anti-PD-1 antibody i.p., FIG. 1; for tumor size as compared to placebo group and to anti-PD-1 antibody alone group: days 6, 9 and 12, p<0.05 for both comparisons; for tumor size over the experimental period: followed to day 28
Experimental: Female BALB/c mice (5 to 6-week-old) were randomly divided into 5 groups (n=5 per group), including (1) placebo (PBS; s.c.); (2) anti-PD-1 antibody (50 μg; i.p.); (3) compound 1 and anti-PD-1 antibody; (4) compound 2 and anti-PD-1 antibody; (5) compound 3 and anti-PD-1 antibody.
To challenge mice, CT26 tumor cells (1×10^6 in 0.1 mL) were injected subcutaneously on day 0. Then, mice in each group received totally three doses of placebo, anti-PD-1 antibody or indicated combination therapy on days 6, 9 and 12. In each dose of combination therapy, 1.6 μg of TLR7/8 agonist (compound 1, 2 or 3) was given subcutaneously, and 50 μg of anti-PD-1 antibody (mAb) was given intraperitoneally. All mice were sacrificed on day 28. The tumor size was determined twice a week by multiplication of caliper measurements based on the modified ellipsoidal formula: Tumor volume=½ (length × width^2). Mice with tumor length over 2 cm were considered dead and mice without measurable or palpable tumor masses were considered tumor-free. The significance of all comparisons was calculated by using t-test, and results considered significant when p<0.05.

CT26 tumor cells [2] = test: In vivo efficacy of compound 1 or proto-resiquimod in combination with an anti-PD-1 antibody in CT26 animal model; set-up: species or system BALB/c mice
Experimental: Female BALB/c mice (5 to 6-week-old) were randomly divided into 4 groups (n=5 per group), including (1) placebo (PBS; i.p.); (2) anti-PD-1 antibody (50 μg; i.p.); (3) compound 1 (1.6 μg; s.c.) and anti-PD-1 antibody (50 μg; i.p.); (4) proto-resiquimod (1.6 μg; s.c.) and anti-PD-1 antibody (50 μg; i.p.).
To challenge mice, CT26 tumor cells (1×10^6 in 0.1 mL) were injected subcutaneously on day 0. Then, mice in each group received totally three doses of placebo, anti-PD-1 antibody or indicated combination therapy. In placebo group, mice received PBS (s.c.) on days 7, 14 and 21. In anti-PD-1 antibody alone group, mice received 50 μg of anti-PD-1 antibody (i.p.) on days 7, 10 and 14. In each combination therapy group, mice received 1.6 μg of TLR7/8 agonist (compound 1 or proto-resiquimod) (s.c.) on days 7, 14 and 21, and 50 μg of anti-PD-1 antibody (i.p.) on days 7, 10 and 14. All mice were sacrificed on day 28. By using the same method as described in example 1, the tumor size was determined and the significance of all comparisons was calculated.

TC-1 cells = test: In vivo efficacy of compound 1 in combination with various therapeutic antibodies in TC-1 animal model; set-up: species or system C57BL/6 mice; details: days 9, 12, 15, 18 and 21, p<0.05, FIG. 3
Experimental: Female C57BL/6 mice (5 to 6-week-old) were randomly divided into 7 groups (n=5 per group), including (1) placebo (PBS, i.p.); (2) compound 1 (1.6 μg; s.c.); (3) compound 1 and anti-CD137 antibody; (4) compound 1 and anti-TIGIT antibody; (5) compound 1 and anti-OX40 antibody; (6) compound 1 and anti-LAG3 antibody; (7) compound 1 and anti-CD47 antibody.
To challenge, each mouse was subcutaneously injected with 1×10^6 TC-1 cells in a volume of 0.1 mL into the left flank at day 0. Then, mice in each group received totally five doses of placebo, compound 1 or indicated combination therapy on days 9, 12, 15, 18 and 21. In each dose of combination therapy, 1.6 μg of compound 1 was given subcutaneously, and 200 μg of therapeutic antibody (anti-CD137, anti-TIGIT, anti-OX40, anti-LAG3 or anti-CD47 antibody) was given intraperitoneally. All mice were sacrificed on day 34. By using the same method as described in example 1, the tumor size was determined and the significance of all comparisons was calculated.

SMILES | tumor size as compared to placebo group and to anti-PD-1 antibody alone group (CT26 tumor cells [1]) | tumor size over the experimental period (CT26 tumor cells [1]) | tumor inhibitory effect compared with the other deuterated compounds (CT26 tumor cells [1]; in combination with anti-PD-1 antibody, p<0.05 for each comparison) | tumor size (CT26 tumor cells [2]; 1.6 μg TLR7/8 agonist s.c. days 7, 14 and 21 in combination with 50 μg anti-PD-1 antibody i.p. days 7, 10 and 14, FIG. 2) | tumor inhibitory effect compared with proto-resiquimod (CT26 tumor cells [2]; in combination with anti-PD-1 antibody, p<0.05) | tumor size as compared to placebo group or compound 1 alone group (TC-1 cells; 1.6 μg compound 1 s.c. in combination with 200 μg anti-CD47 antibody i.p.) | tumor size as compared to placebo group or compound 1 alone group (TC-1 cells; 1.6 μg compound 1 s.c. in combination with 200 μg anti-CD137 antibody i.p.) | tumor size as compared to placebo group or compound 1 alone group (TC-1 cells; 1.6 μg compound 1 s.c. in combination with 200 μg anti-LAG3 antibody i.p.) | tumor size as compared to placebo group or compound 1 alone group (TC-1 cells; 1.6 μg compound 1 s.c. in combination with 200 μg anti-OX40 antibody i.p.) | tumor size as compared to placebo group or compound 1 alone group (TC-1 cells; 1.6 μg compound 1 s.c. in combination with 200 μg anti-TIGIT antibody i.p.)
[2H]C([2H])([2H])C([2H])([2H])OCc1nc2c(N)nc3ccccc3c2n1CC(C)(C)O [Compound 1] | significantly reduce tumor size | almost completely suppressed tumor size | outstanding and significant tumor inhibitory effect than compounds 2 or 3 | potently inhibit tumor size | more significant tumor inhibitory effect than proto-resiquimod | significantly suppress tumor size | significantly suppress tumor size | significantly suppress tumor size | significantly suppress tumor size | significantly suppress tumor size
[2H]C([2H])([2H])C(O)(Cn1c(COCC)nc2c(N)nc3ccccc3c21)C([2H])([2H])[2H] [Compound 3] | significantly reduce tumor size | initially well controlled, however, slightly grew at the last week |  |  |  |  |  |  |  | 
[2H]C([2H])([2H])C(O)(C([2H])([2H])[2H])C([2H])([2H])n1c(COCC)nc2c(N)nc3ccccc3c21 [Compound 2] | significantly reduce tumor size | initially well controlled, however, slightly grew at the last week |  |  |  |  |  |  |  | 

From US20240382469A1, “COMBINATION THERAPY WITH DEUTERATED IMIDAZOQUINOLINES” (BIRDIE BIOPHARMACEUTICALS, INC., priority 2021, published 2024)
